This is an account of results in US6746663B2, “Porphyrin compounds” (Photochemical Co., Ltd., priority 1999, dated 2004).

Counter-ions that a name gives are not always drawn.

Data set [1] can be described thus: Photosensitizing oxidation reaction using Dansyl methionine. The following applies: for Degree of Photo Reaction (reaction end time): 0.1 μM photosensitizer, 10 μM Dansyl methionine in chloroform, halogen lamp irradiation, time until Dansyl methionine disappeared on TLC, smaller = stronger. How it is done: (§1) Albumin test is a test method for evaluating the affinity to cancerous tissues, in which a chlorin derivative is examined on the change in ultraviolet (UV) absorption spectrum in a mixture form with albumine, and dancyl methionine test is also a convenient test method for evaluating the strength of the photoreactivity by thin layer chromatography (TLC) or high performance liquid chromatography (HPLC) (see Japanese Patent Application Laid-open No. 5-97857).
To 1 ml of chloroform, 10 μM of Dansyl methionine, a substrate, was added, and then 0.1 μM of the photosensitizer of the present invention [sodium salt of NOEt-P-Asp(I)] was further added. Laser irradiation was conducted using Cold Spot PICL-SX (Nippon P.I. Co., Ltd.) which is halogen lamp, has 150 W wave length and 80,00 Lux, under stirring. The reaction solution was spotted at every minute on TLC plate (Kieselgel 60F254), and developed with chloroform methanol (3:2), then Dansyl methionine and its oxide (Dansylmethionine sulfoxide) were confirmed using UV lamp (254 nm). The time that Dansylmethionine disappeared completely on TLC plate was stated as the end of the reaction time, and photo oxidation reaction of photosensitizer was compared.
Photofrin II (Trade Mark) was used as a control of photosensitizer of present invention.

The target in another data set is albumin (Homo sapiens, UniProt P02768). The data set can be described thus: Albumin test (change in UV absorption spectrum in mixture with albumin). Format: binding.
Text: as §1

In data set [2] the test system is tumor tissues of colon cancer Colon 26. Put plainly: Evaluation on tissue accumulability (cancer/organ concentration by surface fluorescence). Format: in vivo. The conditions noted are these: 10 mg/kg intravenous, 3H/He mice bearing Colon 26, 1 to 24 hours after administration, FIG. 2. Here is the method:
In the graph, the curve No.1 represents the result of cancer/brain, the curve No.2 represents the result of cancer/liver, the curve No.3 represents the result of cancer/lung, the curve No.4 represents cancer/muscle, the curve No.5 represents cancer/kidney, and the curve No.6 represents cancer/plasma.
3H/He mice (5 per group) implanted with tumor tissues of colon cancer Colon 26 for 14 to 21 days, were given an intravenous injection of sodium salt of each of NOEt-P-Asp(I) (10 mg/kg for each mouse) which had been diluted with a distilled water for injection. The blood samples were collected and the organs bearing the tumor tissue were extirpated after the injection, irradiated with N2-pulsed laser (N2, wavelength: 337 nm, 2 ns, 400-1,000 nm), and the excited fluorescent spectrum was measured. The wavelength in the range of 600 to 900 nm was examined based on the peak wavelength of NADH at 470 nm (determination of the distribution of the test compound in the organ by the surface fluorescence method using N2-pulsed laser spectrophotometry). That is, the distributed concentration of sodium salt of NOEt-P-Asp(I) in cancer/organ (or plasma) ratio was determined by calculating the peak wavelength at 670 nm when the peak wavelength at 470 nm was considered as the basic value, 1.

albumin, sequence (P02768 25-609, species assumed): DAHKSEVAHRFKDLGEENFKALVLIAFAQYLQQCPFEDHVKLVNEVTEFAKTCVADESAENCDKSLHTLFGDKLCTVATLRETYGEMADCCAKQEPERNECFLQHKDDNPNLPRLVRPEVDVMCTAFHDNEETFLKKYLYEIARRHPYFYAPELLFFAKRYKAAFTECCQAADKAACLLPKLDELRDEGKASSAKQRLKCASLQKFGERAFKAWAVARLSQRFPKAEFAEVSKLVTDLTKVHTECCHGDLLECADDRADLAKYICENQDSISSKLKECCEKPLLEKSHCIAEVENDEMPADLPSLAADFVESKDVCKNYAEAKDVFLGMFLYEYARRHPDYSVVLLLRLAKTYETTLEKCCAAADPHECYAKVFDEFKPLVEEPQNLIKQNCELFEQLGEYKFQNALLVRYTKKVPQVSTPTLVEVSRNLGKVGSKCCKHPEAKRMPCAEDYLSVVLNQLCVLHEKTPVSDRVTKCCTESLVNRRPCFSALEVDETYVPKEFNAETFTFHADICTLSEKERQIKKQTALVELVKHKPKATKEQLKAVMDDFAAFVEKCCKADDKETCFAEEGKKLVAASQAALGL

For “13,17-bis[(1,2-dicarboxyethyl)carbamoylethyl]-8-ethenyl-2-hydroxy-3-etoxyiminoethylidene-2,17,12,18-tetramethyl-porphyrin [NOEt-P-Asp(II) Na salt]”, the “Degree of Photo Reaction (reaction end time)” value in data set [1] was determined as 4 min. Turning to `C=Cc1c(C)c2cc3nc(cc4[nH]c(cc5nc(cc1[nH]2)C(C)(O)C5=CC=NOCC)c(C)c4CCC(=O)NC(CC(=O)O)C(=O)O)C(CCC(=O)NC(CC(=O)O)C(=O)O)=C3C` (centres unmarked) [NOEt-P-Asp(I), 13,17-bis[(1,2-dicarboxylethyl)carbamoylethyl]-3-ethenyl-7-hydroxy-8-ethoxyiminoethylidene-2,7,12,18-tetramethyl-porphyrin], the “photosensitivity (strength of photoreactivity)” value in data set [1] (dancyl methionine test, result in words) is “strong photosensitivity”. Besides, the “transferability to cancerous tissues (affinity to cancerous tissues)” value on albumin is “excellent transferability to cancerous tissues”. Turning to `C=Cc1c(C)c2cc3nc(cc4[nH]c(cc5nc(cc1[nH]2)C(C)(O)C5=CC=NOCC)c(C)c4CCC(=O)NC(CC(=O)O)C(=O)O)C(CCC(=O)NC(CC(=O)O)C(=O)O)=C3C` (centres unmarked) [NOEt-P-Asp(I) Na salt, 13,17-bis[(1,2-dicarboxylethyl)carbamoylethyl]-3-ethenyl-7-hydroxy-8-ethoxyiminoethylidene-2,7,12,18-tetramethyl-porphyrin], the “Degree of Photo Reaction (reaction end time)” value in data set [1] stood at 4 min. The “accumulability to cancerous tissues (cancer/organ or plasma concentration ratio)” value in data set [2] was “much higher accumulability to cancerous tissues”.
